For assay [1], the system named is human acute monocytic leukemia cell line MV-4-11. Nature of the assay: Assay 2: cell proliferation assay (ATP quantitation, CellTiter-Glo), MV-4-11. The format is cell-based. The following applies: MV-4-11 cells. The method, boiled down: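 MV-4-11 cells, 1.67×10^4 per well in medium with 10% FBS, were exposed to compound for 72 h at 37° C., 5% CO2; HL-60 cells served as toxicity control. Proliferation read as ATP content by CellTiter-Glo luminescence.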

The target in assay [2] is T1, biotinylated wild-type menin and MLL-AF9 fusion protein (menin/MLL binding) (Homo sapiens, UniProt O00255).
T1 construct: made in house; host or cells: menin: E. coli; MLL-AF9-FLAG: HEK293 cells, used as cleared lysate
T1 sequence (O00255 1-610): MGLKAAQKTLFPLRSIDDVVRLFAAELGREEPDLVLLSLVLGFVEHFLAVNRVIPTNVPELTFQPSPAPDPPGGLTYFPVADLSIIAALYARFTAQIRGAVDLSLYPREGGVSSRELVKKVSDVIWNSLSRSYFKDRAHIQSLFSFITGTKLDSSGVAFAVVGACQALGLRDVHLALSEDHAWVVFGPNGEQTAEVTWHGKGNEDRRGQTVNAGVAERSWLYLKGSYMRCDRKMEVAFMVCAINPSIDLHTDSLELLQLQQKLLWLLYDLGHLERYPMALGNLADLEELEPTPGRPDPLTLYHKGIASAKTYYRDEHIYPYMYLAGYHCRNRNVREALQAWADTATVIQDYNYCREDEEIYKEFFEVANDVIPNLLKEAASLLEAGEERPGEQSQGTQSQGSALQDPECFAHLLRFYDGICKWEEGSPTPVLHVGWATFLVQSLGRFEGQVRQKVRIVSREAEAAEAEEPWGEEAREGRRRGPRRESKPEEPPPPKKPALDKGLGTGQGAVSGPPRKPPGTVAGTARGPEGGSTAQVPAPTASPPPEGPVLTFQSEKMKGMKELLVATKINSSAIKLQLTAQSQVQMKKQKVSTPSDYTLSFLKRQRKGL
Nature of the assay: Assay 1: menin/MLL binding AlphaLISA assay, wild-type menin. The following applies: Table 30; column head does not say wild-type or mutated menin. The method, boiled down:
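Compound was preincubated 30 min at room temperature with biotinylated menin (5 nM) and MLL-AF9-FLAG lysate from HEK293 cells, pH 7.4 buffer with 5% DMSO and DTT. Bead-based Alpha signal after 60 min with streptavidin donor and anti-FLAG acceptor beads; four-parameter logistic fit gave IC50.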

For 20 molecules, EC50 and IC50 results are on record in patent US12312359B2 (Vitae Pharmaceuticals, LLC, priority 2016, dated 2025).

Turning to `CC(C)c1ccccc1-c1cc(F)ccc1Nc1cncnc1N1CC2(CN(CC3CCOCC3)C2)C1` [Example 15, N-(5-fluoro-2′-isopropyl-[1,1′-biphenyl]-2-yl)-4-(6-((tetrahydro-2H-pyran-4-yl)methyl)-2,6-diazaspiro[3.3]heptan-2-yl)pyrimidin-5-amine], the EC50 in assay [1] (Homo sapiens, MV4-11, 72 h) was in the range of 0.1 to 1 µM. The molecule further registered an IC50 in assay [2] of under 0.1 µM.
Consider `CC(C)N(C(=O)c1cc(F)ccc1Nc1cncnc1N1CCC2(CC1)CN(CC(C)(C)O)C2)C(C)C` [Example 16, 5-fluoro-2-((4-(2-(2-hydroxy-2-methylpropyl)-2,7-diazaspiro[3.5]nonan-7-yl)pyrimidin-5-yl)amino)-N,N-diisopropylbenzamide], for which the EC50 in assay [1] (Homo sapiens, MV4-11, 72 h) was in the range of 0.1 to 1 µM. Further, in assay [2], the half-inhibitory concentration (IC50) is under 0.1 µM.
Molecule `CC(C)c1ncncc1-c1cc(F)ccc1Oc1cncnc1N1CC2(CC(NCc3ccc(F)cc3)CO2)C1` (stereo not shown) [Example 18, 2-(5-(4-fluoro-2-(4-isopropylpyrimidin-5-yl)phenoxy)pyrimidin-4-yl)-N-(4-fluorobenzyl)-5-oxa-2-azaspiro[3.4]octan-7-amine] displayed a 50% effective concentration (EC50) in assay [1] (Homo sapiens, MV4-11, 72 h) of 0.1 to 1 µM. This molecule also yielded an IC50 in assay [2] of under 0.1 µM.
For `CC(C)c1ccccc1-c1cc(F)ccc1Oc1cncnc1N1CC2(CC(NCc3ccc(C#N)cc3)CO2)C1` (stereo not shown) [Example 19, 4-(((2-(5-((5-fluoro-2′-isopropyl-[1,1′-biphenyl]-2-yl)oxy)pyrimidin-4-yl)-5-oxa-2-azaspiro[3.4]octan-7-yl)amino)methyl)benzonitrile] the same measures were 0.1 to 1 µM and under 0.1 µM.
For `Cn1c(=O)[nH]c2ccc(CN3CCC4(CCC(c5ncncc5Oc5ccc(F)cc5Cl)C4)C3)cc21` (stereo not shown) [Example 27, 6-((7-(5-(2-chloro-4-fluorophenoxy)pyrimidin-4-yl)-2-azaspiro[4.4]nonan-2-yl)methyl)-1-methyl-1H-benzo[d]imidazol-2(3H)-one] the same measures were at least 1 µM and under 0.1 µM.
The like results for `CC(C)c1ncncc1-c1cc(F)ccc1Oc1cnccc1N1CCC2(CCN(Cc3ccc4[nH]c(=O)[nH]c4c3)C2)C1` (stereo not shown) [Example 28, 5-((7-(3-(4-fluoro-2-(4-isopropylpyrimidin-5-yl)phenoxy)pyridin-4-yl)-2,7-diazaspiro[4.4]nonan-2-yl)methyl)-1,3-dihydro-2H-benzo[d]imidazol-2-one] were, in that order, under 0.1 µM and under 0.1 µM.
Take `CCC(C)(OC)c1cc(F)ccc1Oc1cncnc1N1CCC2(CCN(Cc3ccc4[nH]c(=O)[nH]c4c3)C2)C1` (stereo not shown) [Example 33, 5-((7-(5-(4-fluoro-2-(2-methoxybutan-2-yl)phenoxy)pyrimidin-4-yl)-2,7-diazaspiro[4.4]nonan-2-yl)methyl)-1,3-dihydro-2H-benzo[d]imidazol-2-one]: the EC50 in assay [1] (Homo sapiens, MV4-11, 72 h) fell in the range of 0.1 to 1 µM. This molecule also had an IC50 in assay [2] of under 0.1 µM.
The like results for `CCC(O)(CC)c1cc(F)ccc1Oc1cncnc1N1CCC2(CCN(Cc3ccc4[nH]c(=O)[nH]c4c3)C2)C1` (stereo not shown) [Example 34, 5-((7-(5-(4-fluoro-2-(3-hydroxypentan-3-yl)phenoxy)pyrimidin-4-yl)-2,7-diazaspiro[4.4]nonan-2-yl)methyl)-1,3-dihydro-2H-benzo[d]imidazol-2-one] were, in that order, at least 1 µM and under 0.1 µM.
The like results for `CC(C)(O)CCc1cc(F)ccc1Oc1cncnc1N1CCC2(CCN(Cc3ccc4[nH]c(=O)[nH]c4c3)C2)C1` (stereo not shown) [Example 36, 5-((7-(5-(4-fluoro-2-(3-hydroxy-3-methylbutyl)phenoxy)pyrimidin-4-yl)-2,7-diazaspiro[4.4]nonan-2-yl)methyl)-1H-benzo[d]imidazol-2(3H)-one] were, in that order, 0.1 to 1 µM and under 0.1 µM.
For `COC(=O)[C@@H]1CC1c1cc(F)ccc1Oc1cncnc1N1CCC2(CCN(Cc3ccc4[nH]c(=O)[nH]c4c3)C2)C1` (stereo partly shown) [Example 37, Methyl 2-(5-fluoro-2-((4-(7-((2-oxo-2,3-dihydro-1H-benzo[d]imidazol-5-yl)methyl)-2,7-diazaspiro[4.4]nonan-2-yl)pyrimidin-5-yl)oxy)phenyl)cyclopropanecarboxylate] the same measures were 0.1 to 1 µM and under 0.1 µM.
`CNC(=O)C1CC1c1cc(F)ccc1Oc1cncnc1N1CCC2(CCN(Cc3ccc4[nH]c(=O)[nH]c4c3)C2)C1` (stereo not shown) [Example 38, 2-(5-fluoro-2-((4-(7-((2-oxo-2,3-dihydro-1H-benzo[d]imidazol-5-yl)methyl)-2,7-diazaspiro[4.4]nonan-2-yl)pyrimidin-5-yl)oxy)phenyl)-N-methylcyclopropane carboxamide] came in with an EC50 in assay [1] (Homo sapiens, MV4-11, 72 h) of at least 1 µM. In assay [2], this molecule showed an IC50 of under 0.1 µM.
For `NS(=O)(=O)c1ccc2c(c1)CC(C(=O)N1CC3(C1)CN(c1ncncc1Oc1ccc(F)cc1Cl)C3)C2` (stereo not shown) [Example 40, 2-(6-(5-(2-chloro-4-fluorophenoxy)pyrimidin-4-yl)-2,6-diazaspiro[3.3]heptane-2-carbonyl)-2,3-dihydro-1H-indene-5-sulfonamide] the same measures were at least 1 µM and 0.1 to 1 µM.
For `CC(C)c1ccccc1-c1cc(F)ccc1Oc1cncnc1N1CCC2(CCN(Cc3ccc4[nH]c(=O)[nH]c4c3)C2)C1` (stereo not shown) [Example 41, 5-((7-(5-((5-fluoro-2′-isopropyl-[1,1′-biphenyl]-2-yl)oxy)pyrimidin-4-yl)-2,7-diazaspiro[4.4]nonan-2-yl)methyl)-1H-benzo[d]imidazol-2(3H)-one] the same measures were under 0.1 µM and under 0.1 µM.
On to `NC(=O)c1ccc(-c2cc(F)ccc2Oc2cncnc2N2CCC3(CCN(Cc4ccc5[nH]c(=O)[nH]c5c4)C3)C2)c(C2CC2)c1` (stereo not shown) [Example 43, 2-cyclopropyl-5′-fluoro-2′-((4-(7-((2-oxo-2,3-dihydro-1H-benzo[d]imidazol-5-yl)methyl)-2,7-diazaspiro[4.4]nonan-2-yl)pyrimidin-5-yl)oxy)-[1,1′-biphenyl]-4-carboxamide], for which the EC50 in assay [1] (Homo sapiens, MV4-11, 72 h) was under 0.1 µM. Moreover, the IC50 in assay [2] was under 0.1 µM.
On to `O=C(O)c1ccc(-c2cc(F)ccc2Oc2cncnc2N2CCC3(CCN(Cc4ccc5[nH]c(=O)[nH]c5c4)C3)C2)c(C2CC2)c1` (stereo not shown) [Example 44, 2-cyclopropyl-5′-fluoro-2′-((4-(7-((2-oxo-2,3-dihydro-1H-benzo[d]imidazol-5-yl)methyl)-2,7-diazaspiro[4.4]nonan-2-yl)pyrimidin-5-yl)oxy)-[1,1′-biphenyl]-4-carboxylic acid], for which, in assay [1] (Homo sapiens, MV4-11, 72 h), the EC50 lay within 0.1 to 1 µM. The same molecule registered an IC50 in assay [2] of under 0.1 µM.
In assay [1] (Homo sapiens, MV4-11, 72 h), `CN(C)C(=O)c1ccc(-c2cc(F)ccc2Oc2cncnc2N2CCC3(CCN(Cc4ccc5[nH]c(=O)[nH]c5c4)C3)C2)c(C2CC2)c1` (stereo not shown) [Example 45, 2-cyclopropyl-5′-fluoro-N,N-dimethyl-2′-((4-(7-((2-oxo-2,3-dihydro-1H-benzo[d]imidazol-5-yl)methyl)-2,7-diazaspiro[4.4]nonan-2-yl)pyrimidin-5-yl)oxy)-[1,1′-biphenyl]-4-carboxamide] yielded an EC50 of under 0.1 µM. Also, the IC50 in assay [2] was under 0.1 µM.
In assay [1] (Homo sapiens, MV4-11, 72 h), `CC(C)c1ccccc1-c1cc(F)c(F)cc1Oc1cncnc1N1CCC2(CCN(Cc3ccc4[nH]c(=O)[nH]c4c3)C2)C1` (stereo not shown) [Example 47, 5-((7-(5-((4,5-difluoro-2′-isopropyl-[1,1′-biphenyl]-2-yl)oxy)pyrimidin-4-yl)-2,7-diazaspiro[4.4]nonan-2-yl)methyl)-1H-benzo[d]imidazol-2(3H)-one] gave an EC50 of 0.1 to 1 µM. In addition, in assay [2], the half-maximal inhibitory concentration (IC50) was under 0.1 µM.
In assay [1] (72 h), `Cc1cc(C#N)ccc1-c1cc(F)ccc1Oc1cncnc1N1CCC2(CCN(Cc3ccc4[nH]c(=O)[nH]c4c3)C2)C1` (stereo not shown) [Example 48, 5′-fluoro-2-methyl-2′-((4-(7-((2-oxo-2,3-dihydro-1H-benzo[d]imidazol-5-yl)methyl)-2,7-diazaspiro[4.4]nonan-2-yl)pyrimidin-5-yl)oxy)-[1,1′-biphenyl]-4-carbonitrile] showed a 50% effective concentration (EC50) of 0.1 to 1 µM. The molecule further returned an IC50 in assay [2] of under 0.1 µM.
The molecule `Cc1cc(C#N)cc(C)c1-c1cc(F)ccc1Oc1cncnc1N1CCC2(CCN(Cc3ccc4[nH]c(=O)[nH]c4c3)C2)C1` (stereo not shown) [Example 51, 5′-fluoro-2,6-dimethyl-2′-((4-(7-((2-oxo-2,3-dihydro-1H-benzo[d]imidazol-5-yl)methyl)-2,7-diazaspiro[4.4]nonan-2-yl)pyrimidin-5-yl)oxy)-[1,1′-biphenyl]-4-carbonitrile] registered an EC50 in assay [1] (Homo sapiens, MV4-11, 72 h) of under 0.1 µM. The molecule further gave an IC50 in assay [2] of under 0.1 µM.
On to `N#Cc1ccc(-c2cc(F)cc(F)c2Oc2cncnc2N2CCC3(CCN(Cc4ccc5[nH]c(=O)[nH]c5c4)C3)C2)c(C2CC2)c1` (stereo not shown) [Example 52, 2-cyclopropyl-3′,5′-difluoro-2′-((4-(7-((2-oxo-2,3-dihydro-1H-benzo[d]imidazol-5-yl)methyl)-2,7-diazaspiro[4.4]nonan-2-yl)pyrimidin-5-yl)oxy)-[1,1′-biphenyl]-4-carbonitrile], for which the EC50 in assay [1] (72 h) was under 0.1 µM. In assay [2], this molecule came in with an IC50 of under 0.1 µM.
